Assay results from ChEMBL document CHEMBL4308906, “Design and synthesis of selective CYP1B1 inhibitor via dearomatization of α-naphthoflavone” (Bioorg Med Chem, 2019).

Columns and labels:
Cytochrome P450 1B1 [1] = target: T1, Cytochrome P450 1B1 (Homo sapiens, UniProt Q16678); assay: Inhibition of human recombinant CYP1B1 using 7-ethoxyresorufin as substrate assessed as percent enzyme activity at 1 uM after 30 mins in presence of NADPH by EROD assay relative to control; set-up: scale not given: the % may be the effect or the level left; conditions: read-out: Activity
T1 sequence (Q16678 whole entry): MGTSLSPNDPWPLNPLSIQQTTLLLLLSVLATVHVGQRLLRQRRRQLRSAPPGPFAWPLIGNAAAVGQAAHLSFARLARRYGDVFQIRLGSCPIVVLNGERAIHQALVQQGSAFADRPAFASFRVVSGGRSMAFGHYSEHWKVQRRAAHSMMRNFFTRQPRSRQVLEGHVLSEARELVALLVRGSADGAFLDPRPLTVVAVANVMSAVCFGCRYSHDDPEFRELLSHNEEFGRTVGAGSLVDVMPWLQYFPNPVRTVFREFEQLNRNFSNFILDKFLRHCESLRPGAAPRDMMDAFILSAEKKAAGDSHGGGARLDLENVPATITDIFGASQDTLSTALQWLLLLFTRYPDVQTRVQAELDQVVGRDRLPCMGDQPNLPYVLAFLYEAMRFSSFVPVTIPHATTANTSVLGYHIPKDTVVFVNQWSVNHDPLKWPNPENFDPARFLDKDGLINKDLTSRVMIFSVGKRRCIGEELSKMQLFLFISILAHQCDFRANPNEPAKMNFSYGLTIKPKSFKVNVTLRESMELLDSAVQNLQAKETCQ

CYP1A1 = target: T2, CYP1A1 (Homo sapiens, UniProt P04798); assay: Inhibition of human recombinant CYP1A1 using 7-ethoxyresorufin as substrate assessed as percent enzyme activity at 1 uM after 15 mins in presence of NADPH by EROD assay relative to control; type: ADME; set-up: scale not given: the % may be the effect or the level left; conditions: recombinant CYP1A1, probe 7-ethoxyresorufin, read-out: Activity
T2 sequence (P04798 whole entry): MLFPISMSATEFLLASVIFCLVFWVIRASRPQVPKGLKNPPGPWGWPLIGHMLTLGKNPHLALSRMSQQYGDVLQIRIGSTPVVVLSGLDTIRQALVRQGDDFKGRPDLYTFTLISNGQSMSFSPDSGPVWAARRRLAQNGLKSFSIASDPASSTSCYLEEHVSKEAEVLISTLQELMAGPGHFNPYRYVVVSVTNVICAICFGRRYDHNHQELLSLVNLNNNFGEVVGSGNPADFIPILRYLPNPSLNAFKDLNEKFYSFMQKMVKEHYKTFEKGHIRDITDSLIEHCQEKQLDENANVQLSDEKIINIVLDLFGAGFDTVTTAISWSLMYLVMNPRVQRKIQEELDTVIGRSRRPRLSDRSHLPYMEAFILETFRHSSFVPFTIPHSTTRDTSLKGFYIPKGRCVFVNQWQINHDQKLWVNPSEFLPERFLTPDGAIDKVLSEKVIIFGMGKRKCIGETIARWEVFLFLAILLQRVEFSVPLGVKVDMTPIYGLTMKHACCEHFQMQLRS

CYP1A2 = target: T3, CYP1A2 (Homo sapiens, UniProt P05177); assay: Inhibition of human recombinant CYP1A2 using 7-ethoxyresorufin as substrate assessed as percent enzyme activity at 1 uM after 30 mins in presence of NADPH by EROD assay relative to control; type: ADME; set-up: scale not given: the % may be the effect or the level left; conditions: recombinant CYP1A2, probe 7-ethoxyresorufin, read-out: Activity
T3 sequence (P05177 whole entry): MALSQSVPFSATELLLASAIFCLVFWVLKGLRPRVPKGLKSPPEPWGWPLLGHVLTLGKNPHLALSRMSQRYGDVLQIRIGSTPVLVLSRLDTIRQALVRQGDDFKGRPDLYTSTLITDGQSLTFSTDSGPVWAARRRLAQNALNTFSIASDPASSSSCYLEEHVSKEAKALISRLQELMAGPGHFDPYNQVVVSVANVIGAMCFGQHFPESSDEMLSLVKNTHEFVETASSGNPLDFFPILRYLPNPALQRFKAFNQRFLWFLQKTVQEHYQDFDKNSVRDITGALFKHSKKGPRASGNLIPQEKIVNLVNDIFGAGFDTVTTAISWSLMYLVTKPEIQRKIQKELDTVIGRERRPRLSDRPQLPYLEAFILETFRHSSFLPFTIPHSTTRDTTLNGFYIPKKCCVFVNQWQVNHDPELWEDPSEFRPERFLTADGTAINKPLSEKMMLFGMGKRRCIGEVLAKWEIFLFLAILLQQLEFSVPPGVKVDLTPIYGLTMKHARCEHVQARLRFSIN

Cytochrome P450 1B1 [2] = target: T1, Cytochrome P450 1B1; assay: Binding affinity to human C-terminal 4His-tagged CYP1B1 expressed in Escherichia coli DH5alpha assessed as spectral dissociation constant by spectrophotometric analysis; conditions: read-out: Ks
Cytochrome P450 1B1 [3] = target: T1, Cytochrome P450 1B1; assay: Inhibition of human recombinant CYP1B1 using 7-ethoxyresorufin as substrate after 30 mins in presence of NADPH by EROD assay
Cytochrome P450 1A1 = target: T4, Cytochrome P450 1A1 (Homo sapiens, UniProt P04798); assay: Inhibition of human recombinant CYP1A1 using 7-ethoxyresorufin as substrate after 15 mins in presence of NADPH by EROD assay; type: ADME
T4 sequence (P04798 whole entry): T2 sequence (P04798 whole entry)

Homo sapiens = species: Homo sapiens; assay: Selectivity ratio of IC50 for human recombinant CYP1A1 to IC50 for human recombinant CYP1B1

Structure (SMILES) | activity at 0.5 h, 1 µM (Cytochrome P450 1B1 [1]) | activity at 0.25 h, 1 µM (CYP1A1) | activity at 0.5 h, 1 µM (CYP1A2) | Kd (Cytochrome P450 1B1 [2]) | IC50 (Cytochrome P450 1B1 [3]) | IC50 (Cytochrome P450 1A1) | Ratio IC50 (Homo sapiens)
NC1CCCC(c2cc(=O)c3ccc4ccccc4c3o2)C1 (mixture of isomers) | 64.7% | 80.9% | 44.5% | 2.9 µM |  |  | 
O=c1cc(C2CC=CCC2)oc2c1ccc1ccccc12 (stereo not given) | 6.5% | 38.1% | 36.9% | 3.1 µM |  |  | 
CN(C)C(=S)Oc1ccc(-c2cc(=O)c3ccc4ccccc4c3o2)cc1 | 15.1% | 17.6% | 96.9% |  |  |  | 
O=c1cc([C@H]2CC[C@@H](O)CC2)oc2c1ccc1ccccc12 | 90.4% | 87.3% | 77.3% | > 1220 µM |  |  | 
CC(C)C1CCC(c2cc(=O)c3ccc4ccccc4c3o2)CC1 (mixture of isomers) | 27.9% | 48.3% |  | 124 µM |  |  | 
CN(C)C(=O)Sc1ccc(-c2cc(=O)c3ccc4ccccc4c3o2)cc1 | 12.3% | 10.3% | 91.9% |  |  |  | 
O=c1cc(-c2cccc(S)c2)oc2c1ccc1ccccc12 | 9.8% | 18.7% | 56.2% |  |  |  | 
CC1CCC(c2cc(=O)c3ccc4ccccc4c3o2)CC1 (mixture of isomers) | 23.9% | 50.2% | 63% | 5.7 µM |  |  | 
N[C@H]1CC[C@H](c2cc(=O)c3ccc4ccccc4c3o2)CC1 | 89.5% | 84.2% | 95.4% |  |  |  | 
Nc1cccc(-c2cc(=O)c3ccc4ccccc4c3o2)c1 | 0.2% | 7.6% | -3.5% |  |  |  | 
CS(=O)(=O)O[C@H]1CC[C@@H](c2cc(=O)c3ccc4ccccc4c3o2)CC1 | 51.5% | 66.1% | 57.7% |  |  |  | 
O=c1cc(C2CCCC2)oc2c1ccc1ccccc12 | 55.3% | 28% | 34.5% |  |  |  | 
O=c1cc([C@H]2CC[C@H](O)CC2)oc2c1ccc1ccccc12 | 51.3% | 72.7% | 76.2% | 62.7 µM |  |  | 
C#C[C@H]1CC[C@@H](c2cc(=O)c3ccc4ccccc4c3o2)CC1 | 0.9% | 11.3% | 21% | 7.3 µM |  |  | 
N[C@H]1CC[C@@H](c2cc(=O)c3ccc4ccccc4c3o2)CC1 | 81.6% | 73.7% | 74.5% |  |  |  | 
CN(C)C(=O)Sc1cccc(-c2cc(=O)c3ccc4ccccc4c3o2)c1 | 2.4% | 3.8% | 68.7% |  |  |  | 
O=c1cc([C@H]2CC[C@@H](S)CC2)oc2c1ccc1ccccc12 | 0.5% | 3.9% |  | 9.4 µM | 0.0388 µM | 0.0762 µM | 1.97
O=c1cc([C@@H]2CCC[C@H](O)C2)oc2c1ccc1ccccc12 (relative stereo) | 79.4% | 71.3% | 68.2% |  |  |  | 
C#C[C@H]1CC[C@H](c2cc(=O)c3ccc4ccccc4c3o2)CC1 | 15% | 0.5% | 8.8% | 264 µM |  |  | 
O=c1cc([C@@H]2CCC[C@@H](O)C2)oc2c1ccc1ccccc12 (relative stereo) | 72.9% | 78% | 73.9% |  |  |  | 

Structure (SMILES) | activity at 0.5 h, 1 µM (Cytochrome P450 1B1 [1]) | activity at 0.25 h, 1 µM (CYP1A1) | activity at 0.5 h, 1 µM (CYP1A2) | Kd (Cytochrome P450 1B1 [2]) | IC50 (Cytochrome P450 1B1 [3]) | IC50 (Cytochrome P450 1A1) | Ratio IC50 (Homo sapiens)
CS(=O)(=O)O[C@H]1CC[C@H](c2cc(=O)c3ccc4ccccc4c3o2)CC1 | 72.5% | 69.9% | 80.3% |  |  |  | 
O=c1cc(C2CCCC(S)C2)oc2c1ccc1ccccc12 (mixture of isomers) | -2.5% | 0% |  | 8.1 µM | 0.0661 µM | 0.134 µM | 2.02
[N-]=[N+]=NC1CCCC(c2cc(=O)c3ccc4ccccc4c3o2)C1 (mixture of isomers) | -4% | 36.1% | 42.5% |  | 0.0903 µM |  | 
O=c1cc(-c2ccc(S)cc2)oc2c1ccc1ccccc12 | 54.3% | 71.3% | 106% |  |  |  | 
O=c1cc(C2=CCCCC2)oc2c1ccc1ccccc12 | -12.9% | 3.2% | 21.2% | 1.1 µM |  |  | 
O=c1cc(C23CC4CC(CC(C4)C2)C3)oc2c1ccc1ccccc12 | 89% | 53.9% | 77.8% |  |  |  | 
Nc1ccc(-c2cc(=O)c3ccc4ccccc4c3o2)cc1 | -1.2% | 2.1% | -16.3% |  |  |  | 
O=c1cc([C@H]2C[C@H]3C=C[C@@H]2C3)oc2c1ccc1ccccc12 | 74% | 43% | 0% |  |  |  | 
CN(C)C(=S)Oc1cccc(-c2cc(=O)c3ccc4ccccc4c3o2)c1 | 2.5% | 3.1% | 75.4% |  |  |  | 
O=c1cc(C2CCC(CO)CC2)oc2c1ccc1ccccc12 (mixture of isomers) | 56.9% | 85.9% | 92.7% |  |  |  | 
CS(=O)(=O)OCC1CCC(c2cc(=O)c3ccc4ccccc4c3o2)CC1 (racemic) | 50.1% | 78.1% | 96.4% |  |  |  | 
COc1ccc(-c2cc(=O)c3ccc4ccccc4c3o2)cc1 | -0.5% | 4% | 15.9% |  |  |  | 
O=c1cc([C@H]2C[C@@H]3C=C[C@H]2C3)oc2c1ccc1ccccc12 | 83% | 61% | 34% |  |  |  | 
c1c[nH]cn1 [IMIDAZOLE] |  |  |  | 1260 µM |  |  | 
CS(=O)(=O)O[C@@H]1CCC[C@@H](c2cc(=O)c3ccc4ccccc4c3o2)C1 (relative stereo) | 59.9% | 66.5% | 69.1% |  |  |  | 
O=c1cc(-c2cccc(O)c2)oc2c1ccc1ccccc12 | 1.6% | 8.2% | 37.2% |  |  |  | 
CC(=O)SC1CCCC(c2cc(=O)c3ccc4ccccc4c3o2)C1 (mixture of isomers) | 4.4% | 31.7% | 0.5% |  |  |  | 
COc1cccc(-c2cc(=O)c3ccc4ccccc4c3o2)c1 | 1.9% | 8.7% | 6.1% |  |  |  | 
CS(=O)(=O)O[C@H]1CCC[C@@H](c2cc(=O)c3ccc4ccccc4c3o2)C1 (relative stereo) | 80.5% | 38.6% | 79.1% |  |  |  | 
